Patent publication US9751832B2, “Selective histone deactylase 6 inhibitors” (H. LEE MOFFITT CANCER CENTER AND RESEARCH INSTITUTE, INC., priority 2013, dated 2017)
Where two headings read alike, the source gives them in different places. Values belong to the compound of their own block, whether it stands above or below them.

Tests used:
HDAC6 = HDAC6 (Homo sapiens (Human), UniProt Q9UBN7); assay: HDAC inhibition assay, HDAC6; type: biochemical
HDAC1 = HDAC1 (Homo sapiens (Human), UniProt Q13547); assay: HDAC inhibition assay, HDAC1; type: biochemical
[1] = system: IL-10 production in PEM and RAW264.7 cells; assay: IL-10 production in antigen presenting cells (ELISA); type: cell-based, murine; conditions: 24 hrs
Description: Murine peritoneal elicited primary macrophages (PEM)(A) and murine RAW264.7 (B) cells were incubated with JB7-19, JB7-22, JB720 at the concentration indicated on each chart. After 24 hrs, the production of IL-10 was measured by ELISA.

[2] = system: acetyl-tubulin and acetyl-histone3 in human melanoma cell lines; assay: Western blot of HDAC substrate acetylation in human melanoma cell lines; type: cell-based; conditions: for acetyl-tubulin and acetylation status of Histone 3: WM795 cells, 24 hrs, FIG. 47
Description: To confirm the selectivity of isotype specific HDACi, Western blot analysis was performed on the acetylation status of known HDAC substrates including histone H3 and H4, which are known Class I HDAC targets, and α-tubulin, a target for HDAC6. The doses required to impart the anti-proliferative effect coincided with that needed to increase acetylation of the respective HDAC substrates (FIG. 41F-41H). […] Conversely, HDAC6 selective inhibitors (HDAC6i) increase α-tubulin acetylation but not histone acetylation (FIG. 41F).

[3] = system: HuT-78, murine MCL, B16 and SM1 cells; assay: Cell viability of cancer cells (CellTiter 96 Aqueous ONE); type: cell-based, human and murine; conditions: 24 hrs, compared to DMSO
Description: Human cutaneous T-cell lymphoma (CTCL) HuT-78 (A), murine mantle cell lymphoma (MCL) (B), and murine melanoma B16 (C) and SM1 (D) cells were incubated with JB7-19, JB7-22, JB720 at different concentrations for 24 hrs. Cell viability was measured using CellTiter 96 Aqueous ONE solution (Promega, Madison, Wis.) and compared to DMSO treated control samples. Error bars represent standard deviation from triplicates.

[4] = system: human melanoma cell lines; assay: Cell cycle analysis by propidium iodide staining; type: cell-based; conditions: FACS
Description: Cells were treated with indicated doses of HDAC inhibitors or DMSO control and then trypsinized, washed, and rendered into a single cell suspension in 1 mL of DPBS. 4 mL ice cold 200 proof ethyl alcohol was added dropwise while vortexing to fix cells. Samples were washed and resuspended in 75% ethanol solution overnight. Then, cells were washed in PBS+0.1% Triton X-100 and counted. Equal numbers of cells were then stained in a solution containing 10 μg/mL RNAseA+1 μg/mL propidium iodide for 2 hours at room temperature. Data was then acquired using a FACSCaliber with at least 10,000 events collected. Cell cycle analysis was completed using ModFit LT (Verity Software House, Topsham, Me.).

[5] = system: NRAS and BRAF mutant human melanoma cell lines; assay: Cell proliferation of human melanoma cell lines (MTS, 24 h); type: cell-based
Description: Cell proliferation was evaluated using various pan- and isotype selective HDACi in a broad panel of human melanoma cell lines. Briefly, cells were plated at 10×10^3/well in a 96 well flat bottom plate. The following day, media was changed to that containing different concentrations of HDACi or matched DMSO vehicle concentrations diluted in complete medium done in triplicate, all with a final concentration of less than 0.1% DMSO. Cells were incubated for 24 hours at 37° C. and 5% CO2. […] All values were then normalized and expressed as a percentage of medium control growth.

[6] = system: B16 murine melanoma cells; assay: B16 melanoma cell growth inhibition assay (MTS); type: cell-based; conditions: 48 h
Description: B16 murine melanoma cells were plated at 5×10^3/well in 96 well flat bottom plates. The following day, media was changed to that containing various concentrations of HDACi or matched DMSO vehicle concentrations diluted in complete medium done in triplicate. […] Briefly, 20 μL of reagent were added per well and incubated at 37° C. for 3 hours.

B16 WT melanoma = assay: In vivo B16 melanoma tumor growth in SCID mice
Description: To further characterize the relative contribution of anti-tumor immunity, specific subsets of cells were depleted via antibody depletion, which was confirmed by staining leukocytes from spleen. […] Taken together, these observations support the anti-melanoma activity of a functional immune system after HDAC6 inhibition.

[7] = system: melanoma antigens gp100, MART1, TYRP1 and TYRP2; assay: Expression of tumor antigens in human melanoma cells (qRT-PCR); type: cell-based; conditions: 48 hours
Description: (D) Expression of tumor antigens was measured in human WM164 non-target and HDAC6KD cells. (E) Expression of tumor antigens mart-1 and gp-100 was measured by western blot.

[8] = system: acetyl-α-tubulin and acetyl-H3 in B16 melanoma cells; assay: Tubulin and histone acetylation Western blot assay; type: cell-based, murine
Description: […]. B16 melanoma cells were plated at 10^5 cells/well in 12 well plates and allowed to adhere overnight. A 50 mM stock of compound was then added by serial dilutions in complete medium to the indicated concentrations. Cells were incubated for 24 h under humidified conditions (37° C., 5% CO2). Wells were then washed with cold PBS, and cells were lysed in a buffer containing 10 mM Tris-HCl pH 8.0, 10% SDS, […], 100 mM DTT, and 1× protease inhibitor (Roche). Cells were lysed for 30 min on ice and then sonicated for 8 min (8 cycles of 30 s on/30 s rest). Cells were then boiled for 10 min with 6× gel loading buffer and resolved on 4-15% gradient gels and subsequently transferred onto nitrocellulose membranes. Membranes were blocked with 5% milk in PBS-T and detection of specific antigens using antibodies against acetyl-H3 and H3 (Cell Signaling), and acetyl-α-tubulin and α-tubulin (Sigma). Bands were detected by scanning blots with LI-COR Odyssey imaging system using both 700 and 800 channels.

B16 melanoma = assay: In vivo B16 melanoma tumor growth in C57BL/6 mice; conditions: for Tumor growth: 25 mg/kg, intraperitoneal, three times weekly
antigen-specific T-cells = assay: In vivo antigen-specific T-cell response to vaccination; design: species or system mice; conditions: in vivo treatment
[9] = system: JAK2/STAT3 phosphorylation in B16 murine melanoma cells; assay: JAK2/STAT3 phosphorylation in B16 melanoma in vivo
MCL = assay: In vivo treatment of MCL-bearing mice
macrophages = assay: Tubastatin A treatment of macrophages (APCs) in vitro; type: cell-based
[10] = system: STAT3 phosphorylation in APCs; assay: STAT3 phosphorylation and recruitment to the IL-10 gene promotor in APCs; type: cell-based
[11] = system: MHC expression on melanoma cells; assay: Surface marker analysis of melanoma cells by flow cytometry; type: cell-based, human and murine; conditions: 3 μM, 48 hours, B16 and WM793
Description: For surface marker analysis melanoma cells were treated with TubastatinA or DMSO for 48 hrs, and/or using Non target and HDAC6KD cell lines, Cells were singly stained with phycoerythryn (PE) conjugated antibodies against MHC I, MHC II, CD40, CD80, CD86. Conjugated antibodies were purchases from eBioscience (San Diego, Calif., USA). After staining for 30 minutes at 4° C., cells were washed three times and then resuspended in buffer containing DAPI (50 ng/mL) for viability. At least 10,000 events were collected using an LSR II (BD) and subsequently analyzed using FlowJo software.2.2.7.

[12] = Table 2, cyclic urea compounds, read-out: HDAC6 IC50
[13] = Table 2, cyclic urea compounds, read-out: HDAC1 IC50
[14] = Table 1B, read-out: IC50 (μM) HDAC6
[15] = Table 1B, read-out: IC50 (μM) HDAC1

HDAC6, sequence (Q9UBN7 whole entry): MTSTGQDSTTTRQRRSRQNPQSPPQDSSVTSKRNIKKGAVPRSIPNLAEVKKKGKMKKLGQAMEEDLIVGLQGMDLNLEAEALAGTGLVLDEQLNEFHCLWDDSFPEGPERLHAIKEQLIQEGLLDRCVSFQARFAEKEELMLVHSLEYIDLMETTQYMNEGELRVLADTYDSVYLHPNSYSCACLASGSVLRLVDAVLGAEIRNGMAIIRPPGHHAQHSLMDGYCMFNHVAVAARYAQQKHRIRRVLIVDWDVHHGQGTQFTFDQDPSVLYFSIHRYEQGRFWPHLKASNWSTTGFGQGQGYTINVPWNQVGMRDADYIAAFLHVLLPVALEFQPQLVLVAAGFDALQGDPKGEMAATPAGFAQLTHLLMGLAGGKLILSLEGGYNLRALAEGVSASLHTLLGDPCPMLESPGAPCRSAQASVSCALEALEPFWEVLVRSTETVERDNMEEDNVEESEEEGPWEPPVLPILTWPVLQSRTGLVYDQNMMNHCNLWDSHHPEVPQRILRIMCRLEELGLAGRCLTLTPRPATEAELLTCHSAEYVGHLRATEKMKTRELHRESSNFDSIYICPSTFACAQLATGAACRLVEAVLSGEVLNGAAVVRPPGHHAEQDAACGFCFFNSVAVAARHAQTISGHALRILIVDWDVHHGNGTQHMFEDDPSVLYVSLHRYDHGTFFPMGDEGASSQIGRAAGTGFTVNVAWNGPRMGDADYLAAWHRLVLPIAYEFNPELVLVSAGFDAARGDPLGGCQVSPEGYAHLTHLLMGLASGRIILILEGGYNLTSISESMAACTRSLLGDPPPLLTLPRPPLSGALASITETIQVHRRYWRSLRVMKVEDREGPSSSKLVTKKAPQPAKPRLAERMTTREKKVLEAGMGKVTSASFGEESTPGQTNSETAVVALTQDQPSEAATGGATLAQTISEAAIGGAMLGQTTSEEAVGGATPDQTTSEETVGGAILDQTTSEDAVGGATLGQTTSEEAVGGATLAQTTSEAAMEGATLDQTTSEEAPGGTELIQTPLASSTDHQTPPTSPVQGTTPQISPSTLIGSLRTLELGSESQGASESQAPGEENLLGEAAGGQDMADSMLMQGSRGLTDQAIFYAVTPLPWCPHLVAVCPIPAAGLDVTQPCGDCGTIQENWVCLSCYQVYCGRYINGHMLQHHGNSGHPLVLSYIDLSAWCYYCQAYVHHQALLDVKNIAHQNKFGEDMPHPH
HDAC1, sequence (Q13547 whole entry): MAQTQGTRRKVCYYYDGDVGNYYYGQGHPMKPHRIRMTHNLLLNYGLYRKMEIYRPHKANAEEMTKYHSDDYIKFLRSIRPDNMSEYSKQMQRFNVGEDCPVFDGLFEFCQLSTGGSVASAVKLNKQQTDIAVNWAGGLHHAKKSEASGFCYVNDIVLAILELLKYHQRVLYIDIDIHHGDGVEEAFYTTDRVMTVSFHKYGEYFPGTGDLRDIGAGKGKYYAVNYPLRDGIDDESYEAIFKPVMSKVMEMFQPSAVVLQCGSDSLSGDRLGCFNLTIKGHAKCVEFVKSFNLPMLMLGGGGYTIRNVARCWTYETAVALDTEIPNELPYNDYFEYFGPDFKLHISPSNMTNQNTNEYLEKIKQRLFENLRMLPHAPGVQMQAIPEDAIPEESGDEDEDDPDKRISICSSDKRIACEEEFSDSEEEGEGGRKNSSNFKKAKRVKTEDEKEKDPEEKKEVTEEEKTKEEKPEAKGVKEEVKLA

Compound: COc1ccccc1NC(=O)NCc1ccc(C(N)=O)cc1 [Compound 1]
IC50 (HDAC6; Table 1A, mean of two experiments ± standard deviation, read-out: HDAC6 IC50): 0.139 ± 0.027 µM | IC50 (HDAC1; Table 1A, mean of two experiments ± standard deviation, read-out: HDAC1 IC50): 0.265 ± 0.059 µM

Compound: COc1ccccc1N1C(=O)N(Cc2ccc(C(=O)NO)cc2)C(C)(C)C1=O [Compound 10a]
Fold Selective (HDAC1/HDAC6) (HDAC6; Table 2, cyclic urea compounds): 386 fold | IC50 (HDAC6; [12]): 0.0742 µM | IC50 (HDAC1; [13]): 28.6 µM

Compound: CCCCN(Cc1ccc(C(=O)NO)cc1)C(=O)Nc1ncccn1 [JB6-22, 4-((1-butyl-3-(pyrimidin-2-yl)ureido)methyl)-N-hydroxybenzamide]
IL-10 production in antigen presenting cells [1]: inhibit IL-10 production | Selectivity (HDAC1/−6) (HDAC6; Table 1B): 281 | IC50 (HDAC6; [14]): 0.00976 µM | IC50 (HDAC1; [15]): 2.74 µM | acetyl-tubulin and acetylation status of Histone 3 [2]: increase acetyl-tubulin without modifying the acetylation status of Histone 3 | Cell proliferation of cancer cells [3]: decrease cell proliferation

Compound: Nc1ccccc1NC(=O)c1ccc(CNc2nccc(-c3cccnc3)n2)cc1 [MGCD0103]
Cell cycle effects [4]: variable cell cycle effects | Inhibition of proliferation, effective concentration range (in words) [5]: low micromolar range | acetylation of α-tubulin ([2]; Western blot, FIG. 41): unchanged

Compound: CCCCN(Cc1ccc(C(=O)NO)cc1)C(=O)Nc1ccc2cn[nH]c2c1 [JB7-19, 4-((1-butyl-3-(1H-indazol-6-yl)ureido)methyl)-N-hydroxybenzamide]
IL-10 production in antigen presenting cells [1]: inhibit IL-10 production | Selectivity (HDAC1/−6) (HDAC6; Table 1B): 284 | IC50 (HDAC6; [14]): 0.00254 µM | IC50 (HDAC1; [15]): 0.721 µM | acetyl-tubulin and acetylation status of Histone 3 [2]: increase acetyl-tubulin without modifying the acetylation status of Histone 3 | Cell proliferation of cancer cells [3]: decrease cell proliferation

Compound: COc1ccccc1NC(=O)N(CCCO)Cc1ccc(C(=O)NO)cc1 [Compound 5b, N-hydroxy-4-((1-(3-hydroxypropyl)-3-(2-methoxyphenyl)ureido)methyl)-benzamide]
Growth inhibition of B16 melanoma cells (in words) [6]: performed very poorly

Compound: O=C(NO)c1ccc(CN(CCc2ccccc2)C(=O)Nc2ccccc2)cc1 [Compound 5h, N-hydroxy-4-((1-phenethyl-3-phenylureido)methyl)benzamide]
Growth inhibition of B16 melanoma cells (in words) [6]: capable of inhibiting the growth

Compound: Nexturastat B
In vivo growth of B16 WT melanoma compared with control treatment (B16 WT melanoma): not significantly different

Compound: CCCCN(Cc1ccc(C(=O)NO)cc1)C(=O)Nc1ccccc1 [Compound 5g, 4-((1-butyl-3-phenylureido)methyl)-N-hydroxybenzamide]
Expression of melanoma antigens at the mRNA level [7]: upregulation of melanoma antigens | histone H3 acetylation ([8]; concentrations of 1 and 10 μM): observable increase | acetyl α-tubulin levels ([8]; low nanomolar treatment, 24 h): dose-dependant increase | histone H3 acetylation ([8]; low nanomolar treatment, 24 h): without a concamanent elevation | Tumor growth (B16 melanoma): delayed tumor growth | acetyl-tubulin and acetylation status of Histone 3 [2]: increase acetyl-tubulin without modifying the acetylation status of Histone 3 | Growth inhibition of B16 melanoma cells (in words) [6]: capable of inhibiting the growth

Selectivity (HDAC1/−6) (HDAC6; Table 1B): 99
Compound: CCCCN(Cc1ccc(C(=O)NO)cc1)C(=O)Nc1cccc(N(C)C)c1 [JB7-20]

Compound: CC(C)[C@@H]1C(=O)N(c2ccccc2)C(=O)N1Cc1ccc(C(=O)NO)cc1 [Compound 10b]
Fold Selective (HDAC1/HDAC6) (HDAC6; Table 2, cyclic urea compounds): 531 fold | IC50 (HDAC6; [12]): 0.0222 µM | IC50 (HDAC1; [13]): 11.8 µM

Compound: CN1CCc2c(c3ccccc3n2Cc2ccc(C(=O)NO)cc2)C1 [Tubastatin A]
Expression of melanoma antigens at the mRNA level [7]: upregulation of melanoma antigens | Antigen-specific T-cell responses to vaccination (antigen-specific T-cells): enhances antigen-specific T-cell responses | JAK2/STAT3 phosphorylation [9]: inhibits JAK2/STAT3 phosphorylation | Antitumor effect (MCL): strong antitumor effect | T-cell activation by treated macrophages (macrophages; in vitro): better activators of naIve T-cells | Expression of co-stimulatory molecules (macrophages; macrophages): increased the expression of co-stimulatory molecules | IL-10 production (macrophages; macrophages): inhibits IL-10 production | Inhibition of proliferation, effective concentration range (in words) [5]: low micromolar range | STAT3 phosphorylation [10]: decreased STAT3 phosphorylation | Tumor growth (B16 melanoma): delayed tumor growth | Anti-melanoma effect in vivo (B16 melanoma; alone or in combination with anti-CLTA4): anti-melanoma effect | acetyl-tubulin and acetylation status of Histone 3 [2]: increase acetyl-tubulin without modifying the acetylation status of Histone 3 | Expression of MHC I [11]: increase of MHC1

Fold Selective (HDAC1/HDAC6) (HDAC6; Table 1A): > 400 fold
Compound: COCCCN(Cc1ccc(C(=O)NO)cc1)C(=O)Nc1ccccc1 [Compound 5e, N-hydroxy-4-((1-(3-methoxypropyl)-3-phenylureido)methyl)benzamide]

Compound: O=C(NO)c1ccc(CN2C(=O)N[C@@H](Cc3ccccc3)C2=O)cc1 [Compound 11a]
Fold Selective (HDAC1/HDAC6) (HDAC6; Table 2, cyclic urea compounds): 295 fold | IC50 (HDAC6; [12]): 0.0256 µM | IC50 (HDAC1; [13]): 7.56 µM
